{"source": "patent US4314988A", "about": "“Folic acid derivatives and process for preparation” (Baker Instruments Corp., priority 1979, dated 1982)", "key": {"[1]": {"target": "whole milk folate binder (Bos taurus, UniProt P02702)", "sequence (P02702 20-234)": "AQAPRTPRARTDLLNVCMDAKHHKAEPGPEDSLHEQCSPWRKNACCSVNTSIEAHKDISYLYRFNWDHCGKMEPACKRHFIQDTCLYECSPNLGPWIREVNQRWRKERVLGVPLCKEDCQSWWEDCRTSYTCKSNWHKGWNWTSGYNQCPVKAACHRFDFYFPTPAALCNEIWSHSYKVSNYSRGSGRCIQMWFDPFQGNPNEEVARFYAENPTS", "assay": "Competitive protein binding (CPB) radioassay for folates using pteroyltyrosine [125I] as radiolabel", "details": "for coincidence of dose response curves generated using pteroyltyrosine [125I] as label: high pH versus lower pH", "description": "The use of the Centria® analytical system, Union Carbide Corporation, in this example, is meant to be illustrative and other methods, both automated and manual, obvious to those skilled in the clinical diagnostic art are also within the scope of this invention.\nBriefly, the Centria® system is a tri-modular instrument in which reagents are pipetted on to a multiwell transfer disk and mixed centrifugally with standards or patients' samples. After a suitable incubation period, the components are separated by a centrifugal elution of the bound and free fractions and the bound fractions counted three at a time.\nFolic acid and N^5 -methyltetrahydrofolic acid standards in the range 0-20 nanograms/milliliter were prepared in 0.05 M sodium borate, pH 9.3 containing 0.1% human serum albumin. The whole milk binder was prepared according to the method of Rothenberg et al., (3) and dissolved in sodium borate, pH 9.3 containing 0.1% human serum albumin.\n(50 microliters, 20,000 cpm) plus 85 microliters of water with the limited number of binding sites contained in a 200 microliter solution of whole milk folate binder. The binding reactions may be shown as follows:\nA gamma counter which counts three of the 36 positions at a time for one minute, so constructed that only the eluate bottom portion of the test tubes fits into the counter, was then used to count all samples. Sequential counting of the tubes thus required about 12 minutes. A small computer with printout capability then printed out the data after completion of the cycle."}, "[2]": {"test_system": "carboxypeptidase A", "assay": "Enzymatic hydrolysis of pteroyltyrosine followed spectrophotometrically (uv)", "type": "biochemical", "details": "0.025 M Tris-HCl, 2 mM zinc chloride, pH 7.3, two hours at ambient temperature", "description": "Two milliliters of a solution of pteroyltrosine (0.75 mmoles/ml) in 0.025 M Tris-HCl containing 2 mM zinc chloride, pH 7.3 were diluted to 10 ml with distilled water. A portion of this solution (2 ml) was placed in a 1 cm cuvette and in another was placed 2 ml of distilled water. To each of the cuvettes was added 50 μl of a solution of 100 μl carboxypeptidase A suspension (Aldrich chemical, lot 060637) diluted with 0.9 ml of 10% lithium chloride.\nThe time course of the reaction was followed spectrophotometrically (uv) over a period of two hours at ambient temperature. An increase and shift in max from 280 to 277 nm and a marked decrease in absorption at 220 nm was observed. Two isosbestic points at 242 and 282 nm were visible."}, "[3]": {"assay": "Storage stability of the radioiodinated product, judged by assay performance", "type": "physicochemical", "details": "stored in a 50% aqueous propylene glycol solution, ten-week period", "from_the_text": "Radioiodination of biological compounds frequently leads to marked chemical instability and subsequent degradation of the radiolabel. This problem is often accentuated in the radiolabel when the materials to be radioiodinated are known to be sensitive to oxygen, light or extremes in pH, as is the case with folic acid and some derivatives.\nThe reaction mixture was applied to a 1×20 cm Sephadex G25, fine, (Pharmacia Fine Chemicals, Uppsala, Sweden) column hydrated with distilled water and equilibrated with 0.1 M potassium phosphate, pH 7.5. The column was eluted with 0.1 M potassium phosphate buffer and 3 ml fractions collected. The product \"peak\" fractions 32-34 were collected, diluted 1:1 with propylene glycol and stored below 0° C."}}}
{"smiles": "CN1c2c(O)nc(N)nc2NCC1CNc1ccc(C(=O)N[C@@H](CCC(=O)O)C(=O)O)cc1", "note": "(some centres unmarked) [N^5 -methyl THF, N-5-methyltetrahydrofolic acid]", "values": [{"measurement": "coincidence of dose response curves generated using pteroyltyrosine [125I] as label", "setting": "[1]", "value": "more nearly coincident than at lower pH"}]}
{"smiles": "Nc1nc2ncc(CNc3ccc(C(=O)N[C@@H](Cc4ccc(O)cc4)C(=O)O)cc3)nc2c(=O)[nH]1", "note": "[Pteroyltyrosine, Pteroyl-L-Tyrosine]", "values": [{"measurement": "final uv spectrum after treatment with carboxypeptidase A", "setting": "[2]", "value": "very similar to that of pteroic acid"}]}
{"smiles": "Nc1nc2ncc(CNc3ccc(C(=O)N[C@@H](CCC(=O)O)C(=O)O)cc3)nc2c(=O)[nH]1", "note": "[folic acid, pteroylglutamic acid]", "values": [{"measurement": "coincidence of dose response curves generated using pteroyltyrosine [125I] as label", "setting": "[1]", "value": "more nearly coincident than at lower pH"}]}
{"smiles": "Nc1nc(O)c2nc(CNc3ccc(C(=O)N[C@@H](Cc4ccc(O)c([125I])c4)C(=O)O)cc3)cnc2n1", "note": "[pteroyltyrosine [^125 I]]", "values": [{"measurement": "deterioration in assay performance on storage", "setting": "[3]", "value": "no deterioration in assay performance over a ten-week period"}, {"measurement": "performance as radiolabel in CPB radioassay for folic acid", "setting": "[1]; folic acid concentration range 0-20 ng/ml", "value": "effective radiolabel in a sensitive CPB radioassay for folic acid"}]}
